The source of these data is patent US20160015771A1, “METHOD OF TREATING OPTIC NERVE DAMAGE, OPHTHALMIC ISCHEMIA OR OPHTHALMIC REPERFUSION INJURY” (Curonz Holdings Company Limited, priority 2012, published 2016).

In assay [1] the test system is Retinal Ganglion Cells (RGC). The assay is described as follows: Retinal ganglion cell (RGC) survival by BRN3A staining of flat-mounted retinae after optic nerve ligation/reperfusion. The note with it: 8 days after injury. The format is in vivo, Male Long-Evans rats. The procedure:
Ischemia was maintained for 45 minutes.
At the end of the study, the animals were euthanized by intraperitoneal injection of overdosed pentobarbital. After euthanasia at day 8 after optic nerve ligation injury, the retinae of both eyes of N=6 animals per cohort were fixed in formalin 4% (1 h at room temperature), dissected and flat-mounted. The flat-mounted preparation was incubated with an Alexa 594 conjugated anti-BRN3A (Brain-specific homeobox/POU domain protein 3A, Chemicon, cat #mAb1585) to visualize the Retinal Ganglion Cells (RGC). Fluorescence was assessed by an Apotome microscope at magnification×20 (Zeiss) within twelve randomly selected respective microscopic fields per subject. The number of surviving RGC was determined with Axio Vision 4.2 software in the respective retinae areas.
Animals were sacrificed at day 8 and retinae were analysed for BrN3A (Brain-specific homeobox/POU domain protein 3A) protein expression patterns that are specific for retinal ganglion cells (RGCs). 12 fields per retina were evaluated.

Assay [2] concerns ischemia-related optic nerve injury. The note with it: topically or intraperitoneal (IP) applied formulations; cited from earlier work.

On to `Brc1c(NC2=NCCN2)ccc2nccnc12` [Brimonidine], for which the “total RGCs rescued” value in assay [1] (relative to non-ischemic eyes, saline group 19.6%) came to 39.6%. This compound also came in with an RGC density in assay [1] (Brimonidine prophylactically applied, 1 mg/kg IP 1 h before ischemia, n=5, non-ischemic eyes 2158 RGCs/mm2) of 855.5±30.7 RGCs/mm2. Further, the neuroprotective activity entry in assay [2] is “neuroprotective”.
